Assay results as given in PMC6681697, “One-Step ^18F-Labeling and Preclinical Evaluation of Prostate-Specific Membrane Antigen Trifluoroborate Probes for Cancer Imaging” (Journal of Nuclear Medicine, 2019).

How the values were obtained:
PSMA = molecular target: T1, PSMA (Homo sapiens, UniProt Q04609); assay: In vitro competition binding assay on LNCaP cells with ^18F-DCFPyL as radioligand; settings: LNCaP cells, 0.1 nM ^18F-DCFPyL radioligand, 1 h at 37°C; n = 3
T1 construct: because it expresses PSMA endogenously and is commonly used to evaluate PSMA-targeting radiotracers; endogenous in cells; host or cells: LNCaP cells
T1 sequence (Q04609 whole entry): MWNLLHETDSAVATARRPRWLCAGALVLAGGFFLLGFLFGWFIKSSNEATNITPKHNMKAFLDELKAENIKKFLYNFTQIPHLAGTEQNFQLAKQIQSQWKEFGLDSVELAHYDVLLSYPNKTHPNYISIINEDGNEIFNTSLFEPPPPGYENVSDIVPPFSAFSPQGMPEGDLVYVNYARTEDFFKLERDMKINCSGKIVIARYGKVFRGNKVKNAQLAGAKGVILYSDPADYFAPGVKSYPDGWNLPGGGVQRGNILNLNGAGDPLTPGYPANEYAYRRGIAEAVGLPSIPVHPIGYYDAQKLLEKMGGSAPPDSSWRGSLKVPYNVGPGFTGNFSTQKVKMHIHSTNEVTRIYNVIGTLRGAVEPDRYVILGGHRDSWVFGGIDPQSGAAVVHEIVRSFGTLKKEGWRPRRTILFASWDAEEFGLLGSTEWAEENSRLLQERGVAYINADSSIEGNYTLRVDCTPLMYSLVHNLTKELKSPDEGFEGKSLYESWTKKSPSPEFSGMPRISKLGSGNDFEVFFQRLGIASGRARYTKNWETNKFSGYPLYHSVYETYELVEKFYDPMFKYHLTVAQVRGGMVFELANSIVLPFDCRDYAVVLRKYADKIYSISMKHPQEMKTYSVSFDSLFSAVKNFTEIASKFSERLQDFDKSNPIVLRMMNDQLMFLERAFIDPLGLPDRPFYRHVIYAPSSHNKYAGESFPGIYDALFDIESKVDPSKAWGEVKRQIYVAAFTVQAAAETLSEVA
Protocol: LNCaP cells were plated onto a 24-well poly-D-lysine coated plate for 48 h (400,000/well). […] Nonspecific binding was determined in the presence of 10 μM unlabeled DCFPyL. The assay mixtures were incubated for 1 h at 37°C with gentle agitation followed by 2 washes with cold HEPES buffered saline. A trypsin solution (0.25%, 400 μL) was then added to each well to harvest the cells. Radioactivity was measured by γ-counting, and Ki values were calculated using the “1 site—fit Ki” built-in model in Prism 7 (GraphPad).

[1] = Distribution coefficient (LogD7.4), shake flask method; format: physicochemical; settings: n-octanol / phosphate buffer 0.1 M pH 7.4; n = 3
Protocol: LogD7.4 values were measured using the shake flask method. Briefly, an aliquot of ^18F-labeled tracer was added to a vial containing 2.5 mL of n-octanol and 2.5 mL of phosphate buffer (0.1 M, pH 7.4). The mixture was vortexed for 2 min and then centrifuged at 3,000g for 10 min. A sample of the n-octanol (0.1 mL) and buffer (0.1 mL) layers was counted using a γ-counter. Values of LogD7.4 were calculated using the following equation: LogD7.4 = log10 [(counts in n-octanol phase)/(counts in buffer phase)].

LNCaP xenografts = assay: Ex vivo biodistribution and blocking studies in mice bearing LNCaP xenografts; settings: for tumor uptake: LNCaP tumor
Protocol: Imaging and biodistribution experiments were performed using NODSCID IL2RγKO male mice. All experiments were conducted according to the guidelines established by the Canadian Council on Animal Care and approved by the Animal Ethics Committee of the University of British Columbia. Mice were anesthetized by inhalation with 2% isoflurane in oxygen and implanted subcutaneously with 1 × 10^7 LNCaP cells behind the left shoulder. The mice were imaged or used in biodistribution studies once the tumor reached 5–8 mm in diameter (5–6 wk).
For biodistribution and blocking studies, the mice were injected with 1–3 MBq of radiotracer. At 60 min, the mice were anesthetized with 2% isoflurane inhalation and euthanized by CO2 inhalation. Blood was withdrawn by cardiac puncture, and the organs and tissues of interest were collected, weighed, and counted using an automatic γ-counter (PerkinElmer). Uptake values were expressed as the percentage of the injected dose per gram of tissue (%ID/g).
A standard 1-way ANOVA was performed to determine whether statistically significant differences in tumor uptake occurred between radiotracers. Each radiotracer was compared with ^18F-DCFPyL using the Dunnett test (a many-to-one t test comparison). This analysis was also performed for kidney and blood activity and for tumor-to-blood and tumor-to-muscle ratios. Reported P values were adjusted for multiple comparisons. The analysis was performed using Prism 8 (GraphPad). […]
Statistical analyses were performed using GradPad prism 7. Multiple t tests were performed to compare biodistribution in unblocked and blocked mice, multiple comparisons were corrected using the Holm-Sidak method. The difference was considered statistically significant when p value was < 0.05.
Supplemental Table 1 – Complete biodistribution study for compounds [18F]1–3 […]
Tissue 1h 1h blocked 1h 1h blocked 1h 1h blocked
(%ID/g) n = 8 n = 4 n = 6 n = 4 n = 8 n = 5 […]
(1 picture or pasted object on this page, not shown here)

[2] = 1 h blocked (coinjection of DCFPyL 0.5 mg)

## C[N+](C)(Cc1ccc(C(=O)NCCCC[C@H](NC(=O)N[C@@H](CCC(=O)O)C(=O)O)C(=O)O)cc1)C[B-](F)(F)F [^18F-1]
PSMA
  Ki: 14.4 ± 2.7 nM
[1]
  LogD7.4: −3.43 ± 0.35
LNCaP xenografts; 1 h after injection, unblocked
  T/B (tumor-to-blood ratio): 10.82 ± 1.64
  T/K (tumor-to-kidney ratio): 0.07 ± 0.06
  T/M (tumor-to-muscle ratio): 23.43 ± 3.71
  adrenal uptake: 4.77 ± 1.75 %ID/g
  blood uptake: 0.57 ± 0.15 %ID/g
  bone uptake: 0.36 ± 0.02 %ID/g
  brain uptake: 0.04 ± 0.01 %ID/g
  fat uptake: 0.99 ± 0.39 %ID/g
  heart uptake: 0.30 ± 0.06 %ID/g
  intestine uptake: 0.54 ± 0.11 %ID/g
  kidney uptake: 114.00 ± 41.30 %ID/g
  liver uptake: 2.90 ± 0.56 %ID/g
  lung uptake: 1.37 ± 0.36 %ID/g
  muscle uptake: 0.26 ± 0.08 %ID/g
  pancreas uptake: 0.55 ± 0.16 %ID/g
  spleen uptake: 2.67 ± 0.98 %ID/g
  stomach uptake: 0.12 ± 0.05 %ID/g
  testes uptake: 0.62 ± 0.15 %ID/g
  tumor uptake: 6.0 ± 1.2 %ID/g
LNCaP xenografts; 1 h after injection, 1-way ANOVA, Dunnett test
  tumor uptake compared with ^18F-DCFPyL: lower tumor uptake than ^18F-DCFPyL
LNCaP xenografts; [2]
  T/B (tumor-to-blood ratio): 0.91 ± 0.44
  T/K (tumor-to-kidney ratio): 0.10 ± 0.03
  T/M (tumor-to-muscle ratio): 2.63 ± 1.10
  adrenal uptake: 0.35 ± 0.14 %ID/g
  blood uptake: 0.45 ± 0.27 %ID/g
  bone uptake: 0.30 ± 0.07 %ID/g
  brain uptake: 0.03 ± 0.01 %ID/g
  fat uptake: 0.14 ± 0.08 %ID/g
  heart uptake: 0.15 ± 0.04 %ID/g
  intestine uptake: 0.57 ± 0.23 %ID/g
  kidney uptake: 3.54 ± 0.83 %ID/g
  liver uptake: 3.00 ± 0.53 %ID/g
  lung uptake: 0.25 ± 0.06 %ID/g
  muscle uptake: 0.13 ± 0.03 %ID/g
  pancreas uptake: 0.11 ± 0.03 %ID/g
  spleen uptake: 0.13 ± 0.03 %ID/g
  stomach uptake: 0.11 ± 0.08 %ID/g
  testes uptake: 0.10 ± 0.02 %ID/g
  tumor uptake: 0.33 ± 0.07 %ID/g
LNCaP xenografts; 1 h after injection, unblocked, listed as [18F]1
  tumor uptake: 6.04 ± 1.24 %ID/g

## O=C(O)CCC(NC(=O)NC(CCCCNC(=O)c1ccc([18F])nc1)C(=O)O)C(=O)O (centres unmarked) [^18F-DCFPyL, 2-(3-{1-carboxy-5-[(6-[^18F]fluoro-pyridine-3-carbonyl)-amino]-pentyl}-ureido)-pentanedioic acid, reference compound]
[1]
  logD at 2 min: -3.12 ± 0.22
LNCaP xenografts; 1 h after injection, unblocked
  adrenal uptake: 3.02 ± 2.14 %ID/g
  blood uptake: 0.60 ± 0.13 %ID/g
  bone uptake: 0.33 ± 0.07 %ID/g
  brain uptake: 0.03 ± 0.01 %ID/g
  fat uptake: 1.05 ± 0.64 %ID/g
  heart uptake: 0.35 ± 0.12 %ID/g
  intestine uptake: 0.33 ± 0.07 %ID/g
  kidney uptake: 123.76 ± 37.67 %ID/g
  liver uptake: 1.82 ± 0.24 %ID/g
  lung uptake: 1.62 ± 0.68 %ID/g
  muscle uptake: 0.29 ± 0.12 %ID/g
  pancreas uptake: 0.58 ± 0.32 %ID/g
  spleen uptake: 3.98 ± 2.35 %ID/g
  stomach uptake: 0.12 ± 0.03 %ID/g
  testes uptake: 0.57 ± 0.21 %ID/g
  tumor uptake: 11.64 ± 3.52 %ID/g
